Measurements taken from the NIST ThermoML archive (doi:10.1021/je0602824).
Numbers after ± are expanded uncertainties.

Assay: xn = mol fraction of the nth substance listed
Settings: 101 kPa, Liquid

CCn1cc[n+](C)c1.O=S(=O)([O-])C(F)(F)F [1-ethyl-3-methylimidazolium trifluoromethanesulfonate] + O
Settings	mass density [kg/m3]	viscosity [mPa·s]
278.15 K, x2 = 0	1400.52 ± 14	96 ± 7
278.15 K, x2 = 0.2286	–	47 ± 3
278.15 K, x2 = 0.2295	1388.3 ± 9.3	–
278.15 K, x2 = 0.431	1372.38 ± 6.5	–
278.15 K, x2 = 0.4324	–	28 ± 2
278.15 K, x2 = 0.6157	1347.34 ± 4.5	–
278.15 K, x2 = 0.6159	–	18 ± 2
278.15 K, x2 = 0.7825	1299.91 ± 3.1	–
278.15 K, x2 = 0.783	–	10 ± 2
278.15 K, x2 = 0.8608	1254.76 ± 2.5	–
278.15 K, x2 = 0.9352	–	5 ± 2
278.15 K, x2 = 0.9353	1171.9 ± 1.7	–
278.15 K, x2 = 0.9712	1097.49 ± 1.2	–
278.15 K, x2 = 0.9924	1030.35 ± 0.75	–
288.15 K, x2 = 0	1392.04 ± 13	61 ± 4
288.15 K, x2 = 0.2286	–	32 ± 2
288.15 K, x2 = 0.2295	1379.81 ± 9.2	–
288.15 K, x2 = 0.431	1363.87 ± 6.4	–
288.15 K, x2 = 0.4324	–	20 ± 2
288.15 K, x2 = 0.6157	1338.87 ± 4.4	–
288.15 K, x2 = 0.6159	–	13 ± 2
288.15 K, x2 = 0.7825	1291.74 ± 3	–
288.15 K, x2 = 0.783	–	7 ± 2
288.15 K, x2 = 0.8608	1247.16 ± 2.4	–
288.15 K, x2 = 0.9352	–	4
288.15 K, x2 = 0.9353	1165.97 ± 1.7	–
288.15 K, x2 = 0.9712	1093.64 ± 1.2	–
288.15 K, x2 = 0.9924	1028.64 ± 0.73	–
298.15 K, x2 = 0	1383.6 ± 13	41 ± 2
298.15 K, x2 = 0.2286	–	23 ± 2
298.15 K, x2 = 0.2295	1371.36 ± 9	–
298.15 K, x2 = 0.431	1355.39 ± 6.3	–
298.15 K, x2 = 0.4324	–	15 ± 2
298.15 K, x2 = 0.6157	1330.37 ± 4.3	–
298.15 K, x2 = 0.6159	–	10 ± 2
298.15 K, x2 = 0.7825	1283.47 ± 3	–
298.15 K, x2 = 0.783	–	6 ± 2
298.15 K, x2 = 0.8608	1239.38 ± 2.4	–
298.15 K, x2 = 0.9352	–	3
298.15 K, x2 = 0.9353	1159.65 ± 1.7	–
298.15 K, x2 = 0.9712	1089.08 ± 1.1	–
298.15 K, x2 = 0.9924	1025.88 ± 0.72	–
308.15 K, x2 = 0	1375.22 ± 13	29 ± 2
308.15 K, x2 = 0.2286	–	17 ± 2
308.15 K, x2 = 0.2295	1362.95 ± 8.9	–
308.15 K, x2 = 0.431	1346.93 ± 6.2	–
308.15 K, x2 = 0.4324	–	12 ± 2
308.15 K, x2 = 0.6157	1321.86 ± 4.3	–
308.15 K, x2 = 0.6159	–	8 ± 2
308.15 K, x2 = 0.7825	1275.1 ± 2.9	–
308.15 K, x2 = 0.783	–	5 ± 2
308.15 K, x2 = 0.8608	1231.42 ± 2.3	–
308.15 K, x2 = 0.9352	–	3
308.15 K, x2 = 0.9353	1152.94 ± 1.6	–
308.15 K, x2 = 0.9712	1083.9 ± 1.1	–
308.15 K, x2 = 0.9924	1022.24 ± 0.69	–
318.15 K, x2 = 0	1366.9 ± 13	21 ± 2
318.15 K, x2 = 0.2286	–	13 ± 2
318.15 K, x2 = 0.2295	1354.59 ± 8.8	–
318.15 K, x2 = 0.431	1338.49 ± 6.1	–
318.15 K, x2 = 0.4324	–	10 ± 2
318.15 K, x2 = 0.6157	1313.33 ± 4.2	–
318.15 K, x2 = 0.6159	–	7 ± 2
318.15 K, x2 = 0.7825	1266.62 ± 2.9	–
318.15 K, x2 = 0.783	–	4
318.15 K, x2 = 0.8608	1223.27 ± 2.3	–
318.15 K, x2 = 0.9352	–	3
318.15 K, x2 = 0.9353	1145.88 ± 1.6	–
318.15 K, x2 = 0.9712	1078.18 ± 1.1	–
318.15 K, x2 = 0.9924	1017.86 ± 0.67	–
328.15 K, x2 = 0	1358.63 ± 13	16 ± 2
328.15 K, x2 = 0.2286	–	10 ± 2
328.15 K, x2 = 0.2295	1346.27 ± 8.7	–
328.15 K, x2 = 0.431	1330.07 ± 6	–
328.15 K, x2 = 0.4324	–	8 ± 2
328.15 K, x2 = 0.6157	1304.78 ± 4.1	–
328.15 K, x2 = 0.6159	–	6 ± 2
328.15 K, x2 = 0.7825	1258.04 ± 2.8	–
328.15 K, x2 = 0.783	–	4
328.15 K, x2 = 0.8608	1214.94 ± 2.2	–
328.15 K, x2 = 0.9352	–	3
328.15 K, x2 = 0.9353	1138.49 ± 1.5	–
328.15 K, x2 = 0.9712	1071.95 ± 1	–
328.15 K, x2 = 0.9924	1012.83 ± 0.63	–
338.15 K, x2 = 0	1350.43 ± 12	13 ± 2
338.15 K, x2 = 0.2286	–	9 ± 2
338.15 K, x2 = 0.2295	1338.01 ± 8.5	–
338.15 K, x2 = 0.431	1321.68 ± 5.9	–
338.15 K, x2 = 0.4324	–	7 ± 2
338.15 K, x2 = 0.6157	1296.19 ± 4	–
338.15 K, x2 = 0.6159	–	5 ± 2
338.15 K, x2 = 0.7825	1249.35 ± 2.7	–
338.15 K, x2 = 0.783	–	4
338.15 K, x2 = 0.8608	1206.43 ± 2.2	–
338.15 K, x2 = 0.9352	–	2
338.15 K, x2 = 0.9353	1130.76 ± 1.5	–
338.15 K, x2 = 0.9712	1065.25 ± 1	–
338.15 K, x2 = 0.9924	1007.21 ± 0.6	–
348.15 K, x2 = 0	1342.3 ± 12	11 ± 2
348.15 K, x2 = 0.2286	–	7 ± 2
348.15 K, x2 = 0.2295	1329.77 ± 8.4	–
348.15 K, x2 = 0.431	1313.29 ± 5.8	–
348.15 K, x2 = 0.4324	–	6 ± 2
348.15 K, x2 = 0.6157	1287.58 ± 4	–
348.15 K, x2 = 0.6159	–	5 ± 2
348.15 K, x2 = 0.7825	1240.55 ± 2.7	–
348.15 K, x2 = 0.783	–	3
348.15 K, x2 = 0.8608	1197.74 ± 2.1	–
348.15 K, x2 = 0.9352	–	2
348.15 K, x2 = 0.9353	1122.73 ± 1.4	–
348.15 K, x2 = 0.9712	1058.13 ± 0.95	–
348.15 K, x2 = 0.9924	1001.05 ± 0.56	–
